Experiments:
[1] = system: secretion of TNF-α and IL-1; assay: investigated tests: TNF-α and IL-1 secretion in human PBMC and mouse peritoneal macrophages in vitro, LPS-induced TNF-α/IL-1 secretion in mice, writhing test, LPS-induced shock in mice; details: tests not specified per compound; active = IC-50 20 μM or lower (human PBMC), 10 μM or lower (mouse macrophages), 30% or higher TNF-α inhibition at 10 mg/kg p.o., analgetic activity same or better than acetyl salicylic acid, 40% or better survival at 30 mg/kg

Row | SMILES | melting point [°C] | activity in at least two investigated tests [1]
1 | CN(C)CCOCc1cc2c(s1)-c1ccccc1Oc1ccccc1-2.Cl | 131 to 133 | 
2 | Cl.c1ccc2c(c1)Oc1ccccc1-c1sc(COCCN3CCCCC3)cc1-2 | 117 to 123 | 
3 | Cl.Fc1ccc2c(c1)-c1sc(COCCN3CCCCC3)cc1-c1ccccc1O2 [Example 19, 1-[2-(11-fluoro-8-oxa-1-thia-dibenzo[e,h]azulene-2-ylmethoxy)-ethyl]-piperidine hydrochloride] |  | activity in at least two investigated tests
4 | Cl.c1ccc2c(c1)Oc1ccccc1-c1sc(COCCN3CCCC3)cc1-2 [Example 5, 1-[2-(8-oxa-1-thia-dibenzo[e,h]azulene-2-ylmethoxy)-ethyl]-pyrrolidine hydrochloride] |  | activity in at least two investigated tests
5 | CN(C)CCCOCc1cc2c(s1)-c1ccccc1Sc1ccccc1-2.Cl [Example 21, [3-(1,8-dithia-dibenzo[e,h]azulene-2-ylmethoxy)-propyl]-dimethylamine hydrochloride] |  | activity in at least two investigated tests

Further lines, with some results ahead:

Row | melting point [°C] | SMILES | activity in at least two investigated tests [1]
6 | 157 to 158 | Cl.c1ccc2c(c1)Oc1ccccc1-c1sc(COCCN3CCOCC3)cc1-2 | 
7 | 124 to 128 | CN(C)CCCOCc1cc2c(s1)-c1cccc(Cl)c1Oc1ccccc1-2 [Example 6, [3-(9-chloro-8-oxa-1-thia-dibenzo[e,h]azulene-2-ylmethoxy)-propyl]-dimethyl-amine] | 
8 | 120 to 122 | CN(C)CCCOCc1cc2c(s1)-c1ccccc1Oc1ccccc1-2.Cl [Example 1, Dimethyl-[3-(8-oxa-1-thia-dibenzo[e,h]azulene-2-ylmethoxy)-propyl]-amine hydrochloride] | activity in at least two investigated tests
9 | 122 | CN(C)CCOCc1cc2c(s1)-c1cccc(Cl)c1Oc1ccccc1-2 [Example 7, [2-(9-chloro-8-oxa-1-thia-dibenzo[e,h]azulene-2-ylmethoxy)-ethyl]-dimethyl-amine] | 

Source: patent US6897211B2, “Thienodibenzoazulene compounds as tumor necrosis factor inhibitors” (Pliva-Istrazivacki Institut d.o.o., priority 2000, dated 2005)
